Read-outs that look alike come from different tables or passages of the source.
How the values were obtained:
histamine receptor H1 = histamine receptor H1 (Homo sapiens, UniProt P35367); assay: Histamine H1 radioligand binding ([3H]Pyrilamine); conditions: read-out: Histamine Binding (1 μM) H1, percent inhibition of specific binding, 1 μM
Procedure: To evaluate in radioligand binding assays the activity of compounds of the invention, human recombinant histamine H1 receptor expressed in Chinese hamster ovary (CHO) cells (De Backer, M. D. et al., Biochem. Biophys. Res. Comm. 197(3):1601, 1993) in a modified Tris-HCl buffer (50 mM Tris-HCl, pH 7.4, 2 mM MgCl2, 100 mM NaCl, 250 mM Sucrose) was used. Compounds of the invention were incubated with 1.2 nM [^3H]Pyrilamine for 180 min. at 25° C. Non-specific binding was estimated in the presence of 1 μM pyrilamine. Receptor proteins were filtered and washed, the filters were then counted to determine [^3H]Pyrilamine specifically bound. Compounds were screened at 1 μM or lower, using 1% DMSO as vehicle. Biochemical assay results are presented as the percent inhibition of specific binding in Table 8.

[1] = target: human dopamine D2L receptor (Homo sapiens, UniProt P14416); assay: Dopamine D2L radioligand binding ([3H]Spiperone); conditions: compound at 1 μM
Description: Non-specific binding was estimated in the presence of […] Haloperidol. Receptor proteins were filtered and washed, the filters were then counted to determine [^3H]Spiperone specifically bound. […] Biochemical assay results are presented as the percent inhibition of specific binding in Table 9.

[2] = percent inhibition of specific binding, read-out: Inhibition of ligand binding, Dopamine D2L
[3] = […] [3H]Spiperone, read-out: Inhibition of ligand binding, Dopamine D2L (percent inhibition of specific binding)

Sequence of human dopamine D2L receptor (P14416 whole entry): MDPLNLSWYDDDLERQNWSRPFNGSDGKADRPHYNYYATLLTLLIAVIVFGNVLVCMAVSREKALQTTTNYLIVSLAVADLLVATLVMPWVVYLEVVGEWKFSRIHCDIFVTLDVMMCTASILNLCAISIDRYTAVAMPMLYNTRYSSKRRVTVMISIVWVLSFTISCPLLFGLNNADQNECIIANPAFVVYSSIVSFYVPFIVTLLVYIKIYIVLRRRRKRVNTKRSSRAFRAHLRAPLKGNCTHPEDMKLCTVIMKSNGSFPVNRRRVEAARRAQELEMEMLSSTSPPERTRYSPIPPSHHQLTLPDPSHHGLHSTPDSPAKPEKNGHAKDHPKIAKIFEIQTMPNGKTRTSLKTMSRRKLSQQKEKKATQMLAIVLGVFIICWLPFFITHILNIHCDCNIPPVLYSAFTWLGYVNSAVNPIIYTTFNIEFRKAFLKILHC
Sequence of histamine receptor H1 (P35367 whole entry): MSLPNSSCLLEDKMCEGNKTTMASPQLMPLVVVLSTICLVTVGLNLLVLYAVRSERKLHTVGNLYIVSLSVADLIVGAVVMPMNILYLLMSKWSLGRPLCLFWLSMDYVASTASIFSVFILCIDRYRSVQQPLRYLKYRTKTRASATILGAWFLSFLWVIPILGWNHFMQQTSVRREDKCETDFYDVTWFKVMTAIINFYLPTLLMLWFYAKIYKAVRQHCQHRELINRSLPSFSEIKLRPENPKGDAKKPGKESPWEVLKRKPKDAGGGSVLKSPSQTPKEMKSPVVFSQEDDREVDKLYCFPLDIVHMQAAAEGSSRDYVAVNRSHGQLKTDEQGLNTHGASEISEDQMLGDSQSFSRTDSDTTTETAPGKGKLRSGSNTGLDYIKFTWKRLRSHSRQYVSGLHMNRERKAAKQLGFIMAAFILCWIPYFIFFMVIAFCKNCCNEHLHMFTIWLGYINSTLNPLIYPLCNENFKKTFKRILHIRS

Row | SMILES | inhibition at 1 µM (histamine receptor H1) | inhibition at 1 µM [1, 2] | inhibition at 1 µM [1, 3]
1 | Cc1ccc2c(c1)c1c(n2CC(C)(O)c2ccncc2)CC(C)N(C)C1 (stereo not drawn) [Compound 345, 2-(pyridin-4-yl)-1-(2,3,8-trimethyl-3,4-dihydro-1H-pyrido[4,3-b]indol-5(2H)-yl)propan-2-ol] | 56% | 15% | 
2 | C/C(=C\n1c2c(c3cc(Cl)ccc31)CN(C)CC2)c1cnccn1 [Compound 333, (E)-8-chloro-2-methyl-5-(2-(pyrazin-2-yl)prop-1-enyl)-2,3,4,5-tetrahydro-1H-pyrido[4,3-b]indole] | 29% | 51% | 
3 | C/C=C(/Cn1c2c(c3cc(Cl)ccc31)CN(C)CC2)c1ccncc1 [Compound No. 362, (E)-8-chloro-2-methyl-5-(2-(pyridin-4-yl)but-2-enyl)-2,3,4,5-tetrahydro-1H-pyrido[4,3-b]indole] | 98% |  | 79%
4 | Cc1ccc2c(c1)c1c(n2C(C)(C)C(O)c2ccccc2)CCN(C)C1 (stereo not drawn) [Compound No. 467, 2-(2,8-dimethyl-3,4-dihydro-1H-pyrido[4,3-b]indol-5(2H)-yl)-2-methyl-1-phenylpropan-1-ol] | 54% |  | 7%
5 | C/C(=C\n1c2c(c3cc(C)ccc31)CN(C1CC1)CC2)c1ccncc1 [Compound 292, (E)-2-cyclopropyl-8-methyl-5-(2-(pyridin-4-v)prop-1-enyl)-2,3,4,5-tetrahydro-H-pyrido[4,3-b]indole] | 11% | 71% | 
6 | CNC(=O)c1cccc(/C(C)=C/n2c3c(c4cc(C)ccc42)CN(C)CC3)c1 [Compound No. 472, (E)-3-(1-(2,8-dimethyl-3,4-dihydro-1H-pyrido[4,3-b]indol-5(2H)-yl)prop-1-en-2-yl)-N-methylbenzamide] | 21% |  | 53%
7 | Cc1ccc2c(c1)c1c(n2CC(C)(O)c2ccncc2)CCN(C2CC2)C1 (stereo not drawn) [Compound 342, 1-(2-cyclopropyl-8-methyl-3,4-dihydro-1H-pyrido[4,3-b]indol-5(2H)-yl)-2-(pyridin-4-yl)propan-2-ol] | 48% | 11% | 
8 | CNC(=O)c1ccc(C#Cn2c3c(c4cc(C)ccc42)CN(C)CC3)cc1F [Compound No. 488, 4-((2,8-dimethyl-3,4-dihydro-1H-pyrido[4,3-b]indol-5(2H)-yl)ethynyl)-2-fluoro-N-methylbenzamide] | 9% |  | 19%
9 | CN1CCc2c(c3cc(Cl)ccc3n2/C=C(/c2ccccc2)c2ccncc2)C1 [Compound No. 461, (Z)-8-chloro-2-methyl-5-(2-phenyl-2-(pyridin-4-yl)vinyl)-2,3,4,5-tetrahydro-1H-pyrido[4,3-b]indole] | 31% |  | 78%
10 | C/C(=C\n1c2c(c3cc(C)ccc31)C(C)N(C)C(C)C2)c1ccncc1 (stereo not drawn) [Compound 285, (E)-1,2,3,8-tetramethyl-5-(2-(pyridin-4-yl)prop-1-enyl)-2,3,4,5-tetrahydro-1H-pyrido[4,3-b]indole] | 21% | 53% | 
11 | C/C(=C/n1c2c(c3cc(C)ccc31)CN(C)CC2)c1cccc(C(=O)N(C)C)c1 [Compound No. 458, (Z)-3-(1-(2,8-dimethyl-3,4-dihydro-1H-pyrido[4,3-b]indol-5(2H)-yl)prop-1-en-2-yl)-N,N-dimethylbenzamide] | 56% |  | 15%
12 | CC(C)c1ccc2c3c(n(CC(C)(O)c4ccncc4)c2c1)CCN(C)C3 (stereo not drawn) [Compound 344, 1-(7-isopropyl-2-methyl-3,4-dihydro-1H-pyrido[4,3-b]indol-5(2H)-yl)-2-(pyridin-4-yl)propan-2-ol] | 7% | 10% | 
13 | CN1CCc2c(c3cc(Cl)ccc3n2C#Cc2ccc(C(F)(F)F)nc2)C1 [Compound No. 486, 8-chloro-2-methyl-5-((6-(trifluoromethyl)pyridin-3-yl)ethynyl)-2,3,4,5-tetrahydro-1H-pyrido[4,3-b]indole] | 22% |  | 14%

Further lines, results first:

Row | inhibition at 1 µM (histamine receptor H1) | inhibition at 1 µM [1, 2] | inhibition at 1 µM [1, 3] | SMILES
14 | -1% |  | 59% | C/C(=C\n1c2c(c3cc(NC4CC4)ccc31)CN(C)CC2)c1ccncc1 [compound 447, (E)-N-cyclopropyl-2-methyl-5-(2-(pyridin-4-yl)prop-1-enyl)-2,3,4,5-tetrahydro-1H-pyrido[4,3-b]indol-8-amine]
15 | 84% |  | 99% | C/C(=C\n1c2c(c3cc(Cl)ccc31)CN(C)[C@H](C)C2)c1ccncc1 [compound 392, (R,E)-8-chloro-2,3-dimethyl-5-(2-(pyridin-4-yl)prop-1-enyl)-2,3,4,5-tetrahydro-1H-pyrido[4,3-b]indole]
16 | 91% |  | 20% | Cc1ccc2c(c1)c1c(n2/C=C(\F)c2ccc(Br)nc2)CCN(C)C1 [compound 416, (Z)-5-(2-(6-bromopyridin-3-yl)-2-fluorovinyl)-2,8-dimethyl-2,3,4,5-tetrahydro-1H-pyrido[4,3-b]indole]
17 | -13% |  | 36% | CCCCNc1ccc2c(c1)c1c(n2/C=C(\C)c2ccncc2)CCN(C)C1 [compound 444, (E)-N-butyl-2-methyl-5-(2-(pyridin-4-yl)prop-1-enyl)-2,3,4,5-tetrahydro-1H-pyrido[4,3-b]indol-8-amine]
18 | 26% |  | 18% | Cc1ccc2c(c1)c1c(n2C#Cc2ccncn2)CCN(C)C1 [Compound No. 499, 2,8-dimethyl-5-(pyrimidin-4-ylethynyl)-2,3,4,5-tetrahydro-1H-pyrido[4,3-b]indole]
19 | 99% |  | 70% | Cc1ccc2c(c1)c1c(n2/C=C(\F)c2cccs2)CCN(C)C1 [compound 451]
20 | 37% |  | 53% | C/C(=C\n1c2c(c3cc(C)ccc31)CN(C)CC2)c1cccc(C(=O)N(C)C)c1 [compound 457, (E)-3-(1-(2,8-dimethyl-3,4-dihydro-1H-pyrido[4,3-b]indol-5(2H)-yl)prop-1-en-2-yl)-N,N-dimethylbenzamide]
21 | 13% |  | 73% | C/C(=C\n1c2c(c3cc(C)ccc31)CN(C)CC2)c1cc(C)nc(C)c1 [compound 399, (E)-5-(2-(2,6-dimethylpyridin-4-yl)prop-1-enyl)-2,8-dimethyl-2,3,4,5-tetrahydro-1H-pyrido[4,3-b]indole]
22 | 33% |  | 80% | CNc1ccc2c(c1)c1c(n2/C=C(\C)c2ccc(F)cc2)CCN(C)C1 [compound 431, (E)-5-(2-(4-fluorophenyl)prop-1-enyl)-N,2-dimethyl-2,3,4,5-tetrahydro-1H-pyrido[4,3-b]indol-8-amine]
23 | 16% |  | 60% | CO/C(=C\n1c2c(c3cc(C)ccc31)CN(C)CC2)c1ccncc1 [compound 413, (Z)-5-(2-methoxy-2-(pyridin-4-yl)vinyl)-2,8-dimethyl-2,3,4,5-tetrahydro-1H-pyrido[4,3-b]indole]
24 | 68% |  | 51% | C/C(=C\n1c2c(c3cc(Cl)ccc31)CN(C)CC2)c1cnc(C)cn1 [compound 385, (E)-8-chloro-2-methyl-5-(2-(5-methylpyrazin-2-yl)prop-1-enyl)-2,3,4,5-tetrahydro-1H-pyrido[4,3-b]indole]
25 | 49% |  | 97% | C/C(=C\n1c2c(c3cc(C)ccc31)CN(C)[C@H](C)C2)c1ccncc1 [compound 390, (R,E)-2,3,8-trimethyl-5-(2-(pyridin-4-yl)prop-1-enyl)-2,3,4,5-tetrahydro-1H-pyrido[4,3-b]indole]
26 | 1% |  | 17% | CC(=O)CN1CCc2c(c3cc(C)ccc3n2/C=C(\C)c2ccncc2)C1 [compound 427, (E)-1-(8-methyl-5-(2-(pyridin-4-yl)prop-1-enyl)-3,4-dihydro-1H-pyrido[4,3-b]indol-2(5H)-yl)propan-2-one]
27 | -5% |  | 92% | CC(=O)N(C)c1ccc2c(c1)c1c(n2/C=C(\C)c2ccc(F)cc2)CCN(C)C1 [compound 443, (E)-N-(5-(2-(4-fluorophenyl)prop-1-enyl)-2-methyl-2,3,4,5-tetrahydro-1H-pyrido[4,3-b]indol-8-yl)-N-methylacetamide]
28 | 8% |  | 68% | C/C(=C\n1c2c(c3cc(C)ccc31)CN(CCF)CC2)c1ccncc1 [compound 422, (E)-2-(2-fluoroethyl)-8-methyl-5-(2-(pyridin-4-yl)prop-1-enyl)-2,3,4,5-tetrahydro-1H-pyrido[4,3-b]indole]
29 | 97% |  | 95% | CN1CCc2c(c3cc(Cl)ccc3n2/C=C/c2ccccc2)C1 [compound 415, (E)-8-chloro-2-methyl-5-styryl-2,3,4,5-tetrahydro-1H-pyrido[4,3-b]indole]
30 | 18% |  | 71% | C/C(=C\n1c2c(c3cc(C)ccc31)CN(C)CC2)c1cc(F)c(O)c(F)c1 [compound 452, (E)-4-(1-(2,8-dimethyl-3,4-dihydro-1H-pyrido[4,3-b]indol-5(2H)-yl)prop-1-en-2-yl)-2,6-difluorophenol]

— patent publication US8906925B2, “Pyrido[4,3-B]indoles containing rigid moieties” (Medivation Technologies, Inc., priority 2008, dated 2014)
